Experimental data taken from ChEMBL document CHEMBL1201862, “PubChem BioAssay data set” (2004).
Activity calls are given as the source filed them. Cut-off read from the data, not from the text of the source, for most assays here: actives have a measured EC50 and inactives only a lower limit.

Assays:
[1] = molecular target: T1, Corticotropin-releasing factor receptor 2/Corticotropin-releasing factor-binding protein (Homo sapiens, UniProt P24387+Q13324); test: Dose Response confirmation of uHTS hits for small molecule antagonists of the CRF-binding protein and CRF-R2 receptor complex.; type: functional; conditions: read-out: IC50_Mean
T1 sequence (Q13324 whole entry): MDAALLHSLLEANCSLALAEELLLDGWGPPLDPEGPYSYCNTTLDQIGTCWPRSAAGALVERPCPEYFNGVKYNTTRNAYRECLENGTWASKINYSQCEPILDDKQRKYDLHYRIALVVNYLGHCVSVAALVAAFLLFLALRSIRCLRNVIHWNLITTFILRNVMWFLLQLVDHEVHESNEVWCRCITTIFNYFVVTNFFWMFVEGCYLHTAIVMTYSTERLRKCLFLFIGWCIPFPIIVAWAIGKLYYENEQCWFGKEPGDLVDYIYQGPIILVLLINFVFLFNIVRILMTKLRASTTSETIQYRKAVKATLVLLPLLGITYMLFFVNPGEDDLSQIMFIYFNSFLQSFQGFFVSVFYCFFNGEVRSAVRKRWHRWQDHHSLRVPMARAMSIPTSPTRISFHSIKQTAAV
T1 sequence (P24387 whole entry): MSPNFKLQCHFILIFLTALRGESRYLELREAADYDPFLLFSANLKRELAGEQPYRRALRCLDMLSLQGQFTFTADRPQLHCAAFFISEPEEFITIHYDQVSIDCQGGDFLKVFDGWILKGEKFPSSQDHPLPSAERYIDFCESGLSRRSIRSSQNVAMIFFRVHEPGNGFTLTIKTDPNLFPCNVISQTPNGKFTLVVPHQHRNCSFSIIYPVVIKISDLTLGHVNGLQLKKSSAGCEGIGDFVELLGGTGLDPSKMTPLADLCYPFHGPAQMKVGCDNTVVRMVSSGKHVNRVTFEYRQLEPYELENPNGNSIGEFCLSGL

[2] = molecular target: T1, Corticotropin-releasing factor receptor 2/Corticotropin-releasing factor-binding protein; test: activators of CRF receptor 2 with binding protein – uHTS hits, confirmation (AID 602473); type: functional; conditions: read-out: EC50_Mean
[3] = NIH-3T3 fibroblast cytotoxicity, dose response, cytotoxicity control, cell-based, fluorescence, Alamar Blue, secondary assay (AID 2327); type: functional;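 note: NIH-3T3 mouse fibroblasts cultured with fluconazole at 8 µg/mL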
[4] = Luminescence Cell-Based Dose Response HTS to Identify Activators of Luciferase Translation or Activity in H4 […] Cells. [Related pubchem assays: 1829 (Project Summary), 1814 (Primary HTS)]; type: functional
H4 = test: Luminescence Cell-Based Dose Response HTS to Identify Activators of 5'UTR Stem-Loop Driven Prion Protein mRNA Translation in H4 Neuroglioblastoma Cells. [Related pubchem assays: 1829 (Project Summary), 1814 (Primary HTS)]; type: functional; conditions: Homo sapiens
[5] = fluconazole-exposed Candida albicans growth modulators – fluorescence, retest, confirmation (AID 2467); type: functional, cell-based
[6] = viability of uninfected HEp-2 cells – cell-based, HTS, cytotoxicity control for RSV inhibitor project, dose response (AID 2410); type: functional; conditions: human respiratory syncytial virus
Cytochrome P450 2D6 = Cytochrome P450 2D6 (Homo sapiens, UniProt P10635);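 note: CYP2D6 member of a cytochrome P450 panel assay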
Chain of Cytochrome P450 2D6 (P10635 whole entry): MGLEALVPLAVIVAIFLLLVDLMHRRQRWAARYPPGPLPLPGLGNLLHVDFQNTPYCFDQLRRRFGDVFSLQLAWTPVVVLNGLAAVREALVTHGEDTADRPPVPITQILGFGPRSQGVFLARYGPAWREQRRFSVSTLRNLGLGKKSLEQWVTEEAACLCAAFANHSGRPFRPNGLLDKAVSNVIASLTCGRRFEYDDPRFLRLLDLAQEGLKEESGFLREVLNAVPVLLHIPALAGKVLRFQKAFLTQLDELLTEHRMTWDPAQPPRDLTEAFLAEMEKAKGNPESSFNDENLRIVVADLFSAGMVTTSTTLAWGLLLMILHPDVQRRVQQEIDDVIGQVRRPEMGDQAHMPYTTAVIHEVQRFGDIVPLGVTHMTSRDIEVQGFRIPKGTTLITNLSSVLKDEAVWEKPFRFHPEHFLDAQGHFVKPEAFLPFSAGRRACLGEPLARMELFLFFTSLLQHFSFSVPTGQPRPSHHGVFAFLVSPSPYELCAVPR

Cytochrome P450 1A2 = molecular target: T2, Cytochrome P450 1A2 (Homo sapiens, UniProt P05177);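 note: PubChem cytochrome P450 panel assay, CYP1A2 panel member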
T2 sequence (P05177 whole entry): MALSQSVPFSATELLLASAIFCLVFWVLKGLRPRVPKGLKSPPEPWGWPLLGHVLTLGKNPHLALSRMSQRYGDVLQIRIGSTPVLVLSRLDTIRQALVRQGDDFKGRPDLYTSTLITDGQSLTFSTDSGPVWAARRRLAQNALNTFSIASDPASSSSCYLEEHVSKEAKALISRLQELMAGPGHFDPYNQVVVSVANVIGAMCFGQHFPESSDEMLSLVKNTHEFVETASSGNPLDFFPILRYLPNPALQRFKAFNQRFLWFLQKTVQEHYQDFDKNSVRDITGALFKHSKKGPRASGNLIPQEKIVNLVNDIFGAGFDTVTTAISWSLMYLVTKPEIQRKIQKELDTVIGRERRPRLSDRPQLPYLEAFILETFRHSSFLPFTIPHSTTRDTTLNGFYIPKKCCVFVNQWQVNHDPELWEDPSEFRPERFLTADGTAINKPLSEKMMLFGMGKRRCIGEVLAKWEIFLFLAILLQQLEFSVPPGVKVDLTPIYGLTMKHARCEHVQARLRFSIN

Cytochrome P450 3A4 = Cytochrome P450 3A4 (Homo sapiens, UniProt P08684);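 note: CYP3A4 tested as one member of a cytochrome P450 panel screen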
Chain of Cytochrome P450 3A4 (P08684 whole entry): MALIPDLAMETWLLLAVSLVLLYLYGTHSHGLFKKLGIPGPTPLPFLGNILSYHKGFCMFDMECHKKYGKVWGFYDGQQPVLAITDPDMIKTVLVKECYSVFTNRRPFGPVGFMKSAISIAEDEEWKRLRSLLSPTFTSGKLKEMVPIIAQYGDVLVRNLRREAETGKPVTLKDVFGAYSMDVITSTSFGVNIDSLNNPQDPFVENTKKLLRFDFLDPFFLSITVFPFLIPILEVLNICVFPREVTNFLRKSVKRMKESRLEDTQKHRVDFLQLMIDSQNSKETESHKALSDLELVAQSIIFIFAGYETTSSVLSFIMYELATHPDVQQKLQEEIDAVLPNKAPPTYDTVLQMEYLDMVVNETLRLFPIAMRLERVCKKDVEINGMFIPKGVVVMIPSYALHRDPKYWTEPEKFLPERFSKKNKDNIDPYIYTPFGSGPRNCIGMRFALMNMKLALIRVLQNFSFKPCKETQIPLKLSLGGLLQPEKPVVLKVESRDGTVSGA

[7] = Trypanosoma cruzi growth suppression in host cells – NIH3T3 host cells, beta-gal luminescence, confirmation (AID 2044); type: functional, cell-based;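 note: intracellular parasites grown in NIH/3T3 mouse fibroblasts as host cells; luminescent beta-galactosidase reporter signal from transgenic T. cruzi replicating inside host cells; inhibitors lower the luminescence signal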
[8] = NIH3T3 cell viability loss – ATP luminescence, mouse fibroblasts, counter-screen, dose response (AID 2010); type: functional, cell-based;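 note: cells exposed to compound for about 90 hours before reading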
[9] = tested on: Streptococcus sp. 'group A'; test: Streptococcus pyogenes SK(-)GAS viability under kanamycin – luminescence, BacTiterGlo, confirmation, counter-screen for streptokinase expression inhibitor project, dose response (AID 1900); type: functional, organism-based
Streptococcus = test: GAS UMAA2166 growth inhibition – luminescence, BacTiterGlo, counter-screen for streptokinase expression inhibitor project, dose response (AID 1915); type: functional, organism-based;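 note: potency for reduction of bacterial viability or growth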
INS1 = test: INS-1E survival protection against cytokine death – cell-based, luminescence, retest, dose response (AID 449756); type: functional; conditions: Rattus norvegicus;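 note: cell death triggered by IL-1 beta plus TNF-alpha plus IFN-gamma mixture; protective hits raise ATP signal compared with cytokine alone wells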
[10] = molecular target: T3, Rac GTPase-activating protein 1 (Homo sapiens, UniProt Q9H0H5); test: blockers of MgcRacGAP-driven Rac1 GTP hydrolysis – biochemical, ADP Hunter fluorescence, primary and confirmatory, confirmation (AID 624330); type: functional
T3 sequence (Q9H0H5 whole entry): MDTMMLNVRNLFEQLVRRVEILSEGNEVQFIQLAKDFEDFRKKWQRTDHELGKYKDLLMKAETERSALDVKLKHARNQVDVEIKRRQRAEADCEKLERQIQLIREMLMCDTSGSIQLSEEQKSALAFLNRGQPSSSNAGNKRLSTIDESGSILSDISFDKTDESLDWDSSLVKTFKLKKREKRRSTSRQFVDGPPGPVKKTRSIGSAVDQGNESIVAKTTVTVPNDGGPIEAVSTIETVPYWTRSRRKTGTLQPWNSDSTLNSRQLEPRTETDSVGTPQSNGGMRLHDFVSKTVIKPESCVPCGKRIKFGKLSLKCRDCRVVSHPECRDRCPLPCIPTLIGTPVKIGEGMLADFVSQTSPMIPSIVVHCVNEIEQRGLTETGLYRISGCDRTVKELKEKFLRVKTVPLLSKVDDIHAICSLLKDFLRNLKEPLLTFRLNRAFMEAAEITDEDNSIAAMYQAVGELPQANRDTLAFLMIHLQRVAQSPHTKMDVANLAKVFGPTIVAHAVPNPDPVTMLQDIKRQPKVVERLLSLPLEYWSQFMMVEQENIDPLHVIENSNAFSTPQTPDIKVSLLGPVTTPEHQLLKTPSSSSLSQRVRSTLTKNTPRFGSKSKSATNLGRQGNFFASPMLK

SMILES | IC50 [1] | EC50 [2] | EC50 [3] | EC50 [5] | further results
O=C(NCC1CCCO1)C1CCCN1C(=O)NC1CCCCC1 (stereo unspecified) | > 47.1 µM (inactive) | > 53 µM (inactive) | – | – | –
O=S(=O)(c1ccc(Cl)s1)N1CCCc2cccc(O)c21 | – | – | 21.4 µM (active) | > 38 µM (not active) | EC50 [4]: 6.05 µM (active); EC50 (H4): 45.3 µM (active)
O=Nc1c(O)n(Cc2cccc(Cl)c2)c2ccccc12 | – | – | > 150 µM (inactive) | 2.99 µM (active) | CC50 [6]: 11.7 µM (active); AC50 (Cytochrome P450 2D6): 22.4 µM (inconclusive); AC50 (Cytochrome P450 1A2): 25.1 µM (inconclusive); AC50 (Cytochrome P450 3A4): 39.8 µM (inconclusive)
Cc1cc(C)nc(NS(=O)(=O)c2ccc(NC(=O)COc3ccccc3)cc2)n1 | – | – | > 150 µM (inactive) | > 38 µM (not active) | –
CC(=O)Cc1nsc(Nc2ccc(Cl)cc2)n1 | – | – | > 160 µM (inactive) | > 38 µM (not active) | –
O=C(NCCS(=O)(=O)c1ccc(Br)cc1)c1ccccc1Cl | > 47.1 µM (inactive) | > 53 µM (inactive) | – | – | –
CNS(=O)(=O)c1cccc(C(=O)NCC(c2ccco2)N(C)C)c1 (stereo unspecified) | > 47.1 µM (inactive) | > 53 µM (inactive) | – | – | –
COc1ccc(CCC(=O)N2CC(C)OC(C)C2)cc1 (stereo unspecified) | – | – | > 150 µM (inactive) | > 38 µM (not active) | –
Cc1ccc(-n2nc(C)c(Sc3ccccc3[N+](=O)[O-])c2N)cc1 | > 47.1 µM (inactive) | > 53 µM (inactive) | – | – | –
CCc1ccc2[nH]c(C(=O)Nc3ccc4c(c3)OCO4)cc2c1 | > 47.1 µM (inactive) | > 53 µM (inactive) | – | – | –
O=[N+]([O-])c1ccc(N2CCOCC2)cc1NCc1ccccc1 | > 47.1 µM (inactive) | > 53 µM (inactive) | – | – | –
CCc1cccc(NC(=S)N(CCCN2CCOCC2)C(C)c2cc3cccc(OC)c3o2)c1 (stereo unspecified) | > 47.1 µM (inactive) | > 53 µM (inactive) | – | – | –
COc1ccc2c(c1)c(/C=C/c1cc[n+](C)cc1)cn2C | – | – | > 160 µM (inactive) | 2.23 µM (active) | –
CCN(c1ccccc1)S(=O)(=O)c1ccc(C(=O)Nc2nnc(C3CC3)o2)cc1 | – | – | > 160 µM (inactive) | 2.19 µM (active) | EC50 [7]: 2.16 µM (active); EC50 [8]: 3.71 µM (active)
COc1ccc(C(=O)NC(=S)NNC(=O)c2ccccc2O)cc1 | – | > 53 µM (inactive) | – | – | EC50 [9]: 2.7 µM (active); EC50 (Streptococcus): 8.79 µM (active)
COc1cc(C(=O)NC2CC(C)(C)Cc3c2cnn3-c2ccccc2)cc(OC)c1OC (stereo unspecified) | > 47.1 µM (inactive) | > 53 µM (inactive) | – | – | –
O=C(COc1ccc(Cl)cc1Cl)NNC(=S)NC(=O)c1ccco1 | – | – | – | – | EC50 [9]: 0.309 µM (active); EC50 (Streptococcus): 1.57 µM (active)
Nc1c2c(nc3sc4c(c13)CCCCC4)CCCCC2 | – | – | > 160 µM (inconclusive) | 3.83 µM (active) | –
COc1ccccc1N1CC(C)(C)C(=O)N(C(=O)c2ccc(Cl)cc2)C1=S | – | – | – | – | AC50 (INS1): > 260 µM (inactive)
CCOc1ccccc1-n1c(C)nc2cc(C(=O)O)ccc21 | > 47.1 µM (inactive) | > 53 µM (inactive) | – | – | –
O=C1C(C2=NC(c3ccccn3)C3C(=O)N(c4ccc(OC(F)(F)F)cc4)C(=O)C23)=C(O)c2ccccc21 (stereo unspecified) | – | – | – | – | AC50 (INS1): 5.71 µM (active)
COc1ccc(C(=O)N(c2ccccc2)C2C=CS(=O)(=O)C2)cc1 (stereo unspecified) | > 47.1 µM (inactive) | > 53 µM (inactive) | – | – | –
O=C1NCCCCC1NS(=O)(=O)c1cccc2ccccc12 (stereo unspecified) | > 47.1 µM (inactive) | > 53 µM (inactive) | – | – | –
O=C(Cc1ccc(O)cc1)N/N=C/c1cccnc1 | – | – | > 160 µM (inactive) | > 38 µM (not active) | –
Cc1ccc(/C=N/Nc2ccnc3cc(Cl)ccc23)c(C)c1 | – | – | – | – | EC50 [7]: 0.672 µM (active); EC50 [8]: > 60 µM (not active); AC50 (INS1): 6.15 µM (active)
Sc1nnc(-c2cccs2)n1/N=C/c1cccs1 | – | – | > 150 µM (inactive) | 1.93 µM (active) | IC50 [10]: 126 µM (active)
